Legend:
[1] = tested on: rat myocardial scar sections; assay: Ex vivo incubation of myocardial scar sections with radiotracers; settings: directly Tc-99m-labeled peptides, 120 MBq/ml RPMI, 2 h, p<0.05
Description: Rat aorta and rat myocardial scar sections were incubated in the presence of ^99mTc-biotin-collagelin, +/−9012 moAb, or ^99mTc-biotin-control peptide Pc (120 MBq/ml of RPMI) for 2 h. The tissues were then rinsed 5 times for periods of 1 minute, and exposed to the gamma-camera as well as to the instant imager for quantitative autoradiography (Instant Imager, Packard) for 15 h.

[2] = tested on: fibrotic myocardial infarction scar; assay type: in vivo, rat; settings: directly labeled tracer
Description: Myocardial infarction of the left ventricle was induced in rats as follows. Male Wistar rats (CERJ, France) were housed in a controlled environment and fed with a standard rat chow. Myocardial infarction of the left ventricle was induced by ligature of the left descending coronary artery performed under general anesthesia [1 mL.kg^−1 i.p. ketamine (Imalgene 500, Merial) and 0.5 mL.kg^−1 i.p. xylazine (Rompun, Bayer)] and positive pressure ventilation, as described. This protocol was performed under a permit from the French Veterinary Services Directorate.
(§1) Two types of control animals were used: healthy rats, and healthy rats which had undergone a simple throracotomy (sham-operated). ^99mTc-biotin-collagelin blood kinetics and biodistribution were investigated by counting blood samples (taken from a jugular catheter) for 6 h after i.v. injection, and organs (extracted after sacrifice) 2 h after injection in a gamma-counter, together with aliquots of the injected preparation (CobraII, Packard, Meriden, USA). Ex vivo myocardial labeling and isotopic imaging were performed 4 weeks after the coronary ligature (or throracotomy), when the lesions had had the time to heal.
For in vivo experiments, radiotracers (70 MBq) were administered i.v. to anesthetized animals (pentobarbital i.p. 6 mg/100 g BW, Ceva Santé Animale, France) within 2 h of radiolabeling. Scintigraphic images were obtained 0–2 h, 4 h, 6 h, 10 h and 24 h after injecting ^99mTc-streptavidin-biotin peptides and 0–3 h after injecting ^99mTc-biotinylated peptides. Planar and tomographic 1-h acquisitions were performed using a dedicated small animal γIMAGER system (Biospace Lab, Paris, France) equipped with 2 parallel low-energy high-resolution collimators (matrix 128×128, 15% energy window centered on 140 KeV). Tracer uptake in the left cardiac area was assessed visually. Two regions of interest were drawn on the scintigrams, over the heart and over the right lung. The mean activity (cpm) per pixel was determined in each region of interest. Then heart-to-lung activity ratios (HLR) were calculated on both planar and transversal tomographic images.

[3] = tested on: collagen fibers of the infarct scars; assay: Post mortem autoradiography of frozen myocardial sections; assay type: in vivo, rat; settings: directly Tc-99m-labeled peptides, frozen myocardial sections
Description: After sacrificing the animals, the heart was removed and frozen, then 20-micrometer thick myocardial sections were cut perpendicular to the short axis of the ventricles in a cryostat, and exposed in a radioimager for 16 h. According to calibration studies performed with activity standards of tissue-equivalent homogenates, 50 counts/mm^2 of ^99m Tc-labeled tracers corresponded to ∼210 kBq/mg in autoradiography. The myocardial sections used for autoradiography, and contiguous heart sections (5 µm) fixed in acetone (−20°C), were stained with hematoxylin-eosin, Masson's trichrome and picrosirius red to determine the location and extent of the fibrotic myocardial scarring.

in vivo = settings: rat, iv
Description: as §1

murine laminin (murine) = murine laminin (murine) (UniProt P19137); assay: SPR; collagelin and laminin
9O12.2 IgG = assay: SPR, 9O12.2 IgG injected over immobilized B-collagelin; assay type: binding
Description: 9O12.2 IgG was injected over biotin-peptides coupled to an SA-sensorchip in a Biacore 2000 instrument. […] In some experiments, the peptide was reduced by DTT on the sensor chip before the IgG was injected. Competition experiments were performed by mixing the IgG with recombinant soluble GPVI (25 µg.mL^−1). Collagen binding to the peptide was analyzed by injecting type-I collagen (200 µg.mL^−1) onto the peptide-coated sensorchip. Conversely, biotin-peptides (125, 250, 500 and 1000 µg.mL^−1) were perfused over fibrillar collagen immobilized on a CM5-sensorchip.

[4] = biological target: fibrillar type I collagen (Homo sapiens, UniProt P02452+P08123); assay: Solid phase assay on collagen-coated microtitration plates; assay type: binding; settings: n = 3
Sequence of fibrillar type I collagen (P02452 162-1218 limits assumed): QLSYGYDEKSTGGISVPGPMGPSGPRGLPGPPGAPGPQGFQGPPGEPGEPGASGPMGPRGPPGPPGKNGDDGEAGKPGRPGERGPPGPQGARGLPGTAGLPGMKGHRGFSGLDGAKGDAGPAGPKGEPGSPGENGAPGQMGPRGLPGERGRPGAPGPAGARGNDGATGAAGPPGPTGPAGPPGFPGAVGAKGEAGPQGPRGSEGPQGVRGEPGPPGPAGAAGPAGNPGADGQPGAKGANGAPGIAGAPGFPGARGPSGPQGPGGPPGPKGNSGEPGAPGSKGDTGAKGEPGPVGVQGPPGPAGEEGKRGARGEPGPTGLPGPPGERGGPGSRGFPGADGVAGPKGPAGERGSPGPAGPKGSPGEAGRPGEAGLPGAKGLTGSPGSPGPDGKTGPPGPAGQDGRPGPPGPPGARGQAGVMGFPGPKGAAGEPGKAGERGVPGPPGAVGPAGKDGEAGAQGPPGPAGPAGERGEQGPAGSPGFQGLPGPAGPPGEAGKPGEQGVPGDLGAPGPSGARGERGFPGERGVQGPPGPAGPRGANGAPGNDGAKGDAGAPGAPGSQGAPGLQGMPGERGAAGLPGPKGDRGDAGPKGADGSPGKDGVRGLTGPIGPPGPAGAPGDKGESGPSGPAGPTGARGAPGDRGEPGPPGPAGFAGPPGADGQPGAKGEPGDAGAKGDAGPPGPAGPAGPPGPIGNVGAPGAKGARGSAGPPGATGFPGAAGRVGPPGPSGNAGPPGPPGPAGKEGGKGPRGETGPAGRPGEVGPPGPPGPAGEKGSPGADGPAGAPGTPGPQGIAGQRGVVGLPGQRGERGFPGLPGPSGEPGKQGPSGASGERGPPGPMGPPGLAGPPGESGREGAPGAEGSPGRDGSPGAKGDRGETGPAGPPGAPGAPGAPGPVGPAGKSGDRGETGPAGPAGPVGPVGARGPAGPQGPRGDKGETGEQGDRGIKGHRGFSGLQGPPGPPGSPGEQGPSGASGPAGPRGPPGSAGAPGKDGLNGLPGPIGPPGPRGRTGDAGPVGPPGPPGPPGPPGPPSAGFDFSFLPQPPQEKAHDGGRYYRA
Sequence of fibrillar type I collagen (P08123 80-1119 limits assumed): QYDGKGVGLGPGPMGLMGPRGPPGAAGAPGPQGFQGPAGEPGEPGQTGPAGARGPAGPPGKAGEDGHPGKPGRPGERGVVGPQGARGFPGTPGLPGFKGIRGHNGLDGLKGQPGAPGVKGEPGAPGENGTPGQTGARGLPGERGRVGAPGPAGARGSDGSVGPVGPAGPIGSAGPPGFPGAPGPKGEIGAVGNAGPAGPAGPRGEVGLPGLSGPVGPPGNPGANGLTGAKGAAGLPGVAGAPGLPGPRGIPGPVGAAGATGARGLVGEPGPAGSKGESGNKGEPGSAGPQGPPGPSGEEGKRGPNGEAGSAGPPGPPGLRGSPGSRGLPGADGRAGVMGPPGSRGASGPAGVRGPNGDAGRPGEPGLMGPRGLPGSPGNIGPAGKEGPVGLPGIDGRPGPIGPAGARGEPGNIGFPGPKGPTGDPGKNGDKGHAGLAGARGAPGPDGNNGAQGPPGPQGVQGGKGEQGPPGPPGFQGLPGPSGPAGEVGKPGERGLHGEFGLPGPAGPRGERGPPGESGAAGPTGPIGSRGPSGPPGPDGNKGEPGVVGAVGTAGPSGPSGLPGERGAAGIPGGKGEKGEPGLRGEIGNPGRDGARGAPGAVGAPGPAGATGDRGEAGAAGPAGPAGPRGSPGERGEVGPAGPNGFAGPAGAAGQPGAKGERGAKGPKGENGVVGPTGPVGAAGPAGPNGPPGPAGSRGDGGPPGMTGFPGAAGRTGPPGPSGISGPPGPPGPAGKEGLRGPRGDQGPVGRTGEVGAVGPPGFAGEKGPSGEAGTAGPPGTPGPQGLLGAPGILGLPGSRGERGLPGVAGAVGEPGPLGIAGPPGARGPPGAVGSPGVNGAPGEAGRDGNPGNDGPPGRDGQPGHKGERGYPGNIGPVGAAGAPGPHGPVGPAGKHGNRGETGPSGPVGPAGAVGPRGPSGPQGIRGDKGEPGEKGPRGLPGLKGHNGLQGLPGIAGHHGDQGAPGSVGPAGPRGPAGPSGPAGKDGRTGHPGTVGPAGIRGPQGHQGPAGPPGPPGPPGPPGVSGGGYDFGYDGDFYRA
Description: Biotin-peptides (50 µg.mL^−1) were incubated on microtitration wells, coated with 1 µg of type-I collagen, convulxin, collagen related peptides, bovine fibrinogen, human fibronectin, rat vitronectin, murine laminin or bovine serum albumin. Bound peptides were detected using HRP-coupled extravidin and the HRP substrate O-phenyl-dianisidine.

[5] = tested on: collagen in sections of rat aorta and tail tendon; assay: Histochemical analysis of rat aorta and tail tendon sections; settings: frozen sections of rat aorta and tail tendon, biotin-peptide 200 µg/mL, HRP-coupled streptavidin
Description: Sections were counter-stained with hematoxylin-eosin (Merck). Collagen was stained using picrosirius red. Sections ([…]) of rat tail tendon were processed as above.

## CSCC[C@@H]1NC(=O)[C@H](C(C)C)NC(=O)[C@H](CCCNC(=N)N)NC(=O)CNC(=O)[C@@H]2CCCN2C(=O)[C@@H](NC(=O)CNC(=O)[C@H](CO)NC(=O)CNC(=O)[C@H](CO)NC(=O)CCCC[C@@H]2SC[C@@H]3NC(=O)N[C@@H]32)CSSC[C@@H](C(N)=O)NC(=O)[C@@H]2CCCN2C(=O)CNC(=O)[C@H](CCC(=O)O)NC(=O)[C@H](CC(=O)O)NC(=O)[C@H](CC(=O)O)NC(=O)CNC(=O)[C@H](CC(C)C)NC(=O)[C@H](Cc2c[nH]cn2)NC(=O)[C@H](CC(C)C)NC(=O)CNC(=O)[C@H](Cc2c[nH]cn2)NC1=O [^99mTc-collagelin, metal not drawn]
[1]
  Ex vivo uptake in scarred tissue of myocardial sections: accumulated in the scarred tissue
[2]; n = 6
  Tracer uptake in the cardiac area, sham-operated rats: No tracer uptake
[2]; planar and SPECT images two hours after injection, all but one of the rats, n = 8
  Probe uptake in the cardiac area, rats with MI scars: significant uptake
[3]
  Autoradiographic labeling of the scar: coincided with the collagen fibers of the scars
In vivo
  Blood clearance half life: 5 ± 0.5 min
In vivo; 1 nmol, total radioactivity
  tissue uptake at 2 h: 0.36 %ID/g

## B-collagelin (collagelin conjugated with biotin) (peptide)
Murine laminin (murine)
  Kd: 18.3 µM

## SGSGCPGRVMHGLHLGDDEGPC (disulfide) [B-collagelin]
9O12.2 IgG; read-out: KD of 9O12.2 IgG binding to immobilized B-collagelin, SPR, Biacore 2000, biotin-peptide on SA-sensorchip, IgG 1.25 to 10 µg/mL, KD = koff/kon
  Kd: 1000 nM
[4]; peptide 50 µg/mL, HRP-coupled extravidin detection
  Binding to collagen-coated plates: bound
[5]
  Histochemical staining of tissue collagen: Positive and specific brown staining

B1: GPVI-Fc: soluble recombinant GPVI, extracellular part of GPVI fused to the IgG Fc domain (protein)
chain: QSGPLPKPSLQALPSSLVPLEKPVTLRCQGPPGVDLYRLEKLSSSRYQDQAVLFIPAMKRSLAGRYRCSYQNGSLWSLPSDQLELVATGVFAKPSLSAQPGPAVSSGGDVTLQCQTRYGFDQFALYKEGDPAPYKNPERWYRASFPIITVTAAHSGTYRCYSFSSRDPYLWSAPSDPLELVVTGTSVTPSRLPTEPPSPVAEFSEATAELTVSFTNEVFTTETSRSITASPKESDSPAGPARQYYTK
modifications: left off: Fc (IgG), end not stated, kept
notes: soluble recombinant GPVI, extracellular part of GPVI fused to the IgG Fc domain
9O12.2 IgG; SPR competition, IgG 5 µg/ml mixed with recombinant soluble GPVI 25 µg/ml
  Effect on binding of 9O12.2 IgG to collagelin: inhibited
[4]; competitor 50 µg/mL mixed with B-collagelin 50 µg/mL
  Inhibition of B-collagelin binding to collagen-coated plates: completely inhibited

From paper PMC2680759, “Non-Invasive Molecular Imaging of Fibrosis Using a Collagen-Targeted Peptidomimetic of the Platelet Collagen Receptor Glycoprotein VI” (PLoS ONE, 2009)
